The subject of data set [1] is Mus musculus. As to the kind of experiment: Toxicity in Swiss mouse assessed as effect on forced locomotor activity at 100 mg/kg, po after 1 hr by rotarod test. It counts as organism-based. To be noted: in vivo. (In general: Falling from the rotarod earlier than controls is read as motor impairment.)
For data set [2], the system named is Mus musculus. Description: Antinociceptive activity in Swiss mouse assessed as inhibition of capsaicin-induced nociception at 100 mg/kg, po administered 1 hr followed by capsaicin challenge measured for 5 mins relative to vehicle-treated control. It counts as functional.
For data set [3], the system named is Mus musculus. As to the kind of experiment: Antinociceptive activity in Swiss mouse assessed as inhibition of CFA-induced mechanical allodynia at 300 mg/kg, po after 2 hrs relative to vehicle-treated control. It counts as functional.
Data set [4] relates to Mus musculus. As to the kind of experiment: Antinociceptive activity in po dosed Swiss mouse assessed as inhibition of CFA-induced mechanical allodynia after 2 hrs. It counts as functional. The note with it: read-out: ID50 (the source's name).
Data set [5] has as its system Mus musculus. As to the kind of experiment: Antinociceptive activity in Swiss mouse assessed as inhibition of CFA-induced mechanical allodynia at 100 mg/kg, po after 2 hrs relative to vehicle-treated control. It counts as functional.
In data set [6] the test system is Mus musculus. Description: Antinociceptive activity in Swiss mouse assessed as inhibition of CFA-induced mechanical allodynia at 100 mg/kg, po measured over 6 hrs. It counts as functional, organism-based.
Data set [7] concerns Mus musculus. Description: Toxicity in Swiss mouse assessed as effect on spontaneous locomotor activity at 100 mg/kg, po after 1 hr by open field test. It counts as organism-based. The note with it: in vivo.
The test system of data set [8] is Mus musculus. Description: Antinociceptive activity in Swiss mouse assessed as inhibition of CFA-induced mechanical allodynia at 100 mg/kg, po measured over 4 hrs. It counts as functional, organism-based.

Activity calls are given as the source filed them. The rule behind the calls is not given here. A value given as a limit tells only on which side of the number the result lay.

For orientation: inhibition in vivo means how much of the control response was suppressed. With `FC(F)(F)c1nc(-n2cccc2)nc2c1C1(CCCCC1)Oc1ccccc1-2`, the Activity result in data set [1] and in data set [7] was “Non-Toxic” each time. Moreover, the Imax in data set [2] was found to be 83%; in data set [3], 66%. For the same compound, the ED50 in data set [4] stood at 422 mg/kg. Also, the inhibition in vivo at 100 mg/kg in data set [5] was not above 68%. In data set [6], the inhibition result is “Active”.
As for `FC(F)(F)c1nc(-n2cccc2)nc2c1C1(CCCCCC1)Oc1ccccc1-2`, the inhibition entry in data set [2] was “Active”.
The same measure, in the same setting: to `FC(F)(F)c1nc(-n2cccc2)nc2c1C1(CCCC1)Oc1ccccc1-2` belongs “Active”; to `Nc1nc2c(c(C(F)(F)F)n1)C1(CCCCC1)Oc1ccccc1-2`, “Active”.
For `CC(C(=O)O)c1cccc(C(=O)c2ccccc2)c1` (stereo not given) [KETOPROFEN], in data set [8], the inhibition result is “Active”. Besides, the inhibition in vivo at 100 mg/kg in data set [2] (Mus musculus, Swiss, po) was 80%; in data set [5], not above 65%. The Imax in data set [3] worked out at 75%. Also, the ED50 in data set [4] turned out to be 169 mg/kg.
For the compound `Nc1nc2c(c(C(F)(F)F)n1)C1(CCCCCC1)Oc1ccccc1-2`, in data set [2], the inhibition result is “Active”.
Still for that read-out and setting: to `FC(F)(F)c1nc(-c2ccccc2)nc2c1C1(CCCCC1)Oc1ccccc1-2` belongs “Active”.
With `FC(F)(F)c1nc(-c2ccccc2)nc2c1C1(CCCC1)Oc1ccccc1-2`, the inhibition entry in data set [2] was “Active”.
On the same count and under the same terms, in the case of `Nc1nc2c(c(C(F)(F)F)n1)C1(CCCC1)Oc1ccccc1-2` it was “Active”; in that of `FC(F)(F)c1nc(-c2ccccc2)nc2c1C1(CCCCCC1)Oc1ccccc1-2`, “Active”.

The record behind these values is ChEMBL document CHEMBL4004882, “Synthesis of novel trifluoromethyl-substituted spiro-[chromeno[4,3-d]pyrimidine-5,1'-cycloalkanes], and evaluation of their analgesic effects in a mouse pain model” (Bioorg Med Chem Lett, 2017).
